Values of other authors, collected in PMC10815991, “Membrane-Bound Redox Enzyme Cytochrome bd-I Promotes Carbon Monoxide-Resistant Escherichia coli Growth and Respiration” (International Journal of Molecular Sciences, 2024).
Like-named read-outs stand apart in the source and are kept apart here.

Test system: cytochrome bd-I heme d2+
Details: cited from earlier work

Substance: nitric oxide [NO]
- koff, NO dissociation from heme d^2+ (ref 69): 0.133 s⁻¹
- koff, NO dissociation from heme d^2+ (ref 70): 0.163 s⁻¹
